From PubChem BioAssay (NCI)
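Following 48 hours of exposure in 96-well plates, responses at five concentrations were used to interpolate endpoints linearly. TGI marks complete inhibition of growth.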

Experiments:
Experiment in all cases: NCI anticancer screen, dose series, 48 h
IGROV1 ovarian = test system: IGROV1 ovarian
CCRF-CEM leukemia = test system: CCRF-CEM leukemia
U251 CNS = test system: U251 CNS
SNB-75 CNS = test system: SNB-75 CNS
HOP-62 NSCLC = test system: HOP-62 NSCLC
KM12 colon = test system: KM12 colon
SF-295 CNS = test system: SF-295 CNS
MOLT-4 leukemia = test system: MOLT-4 leukemia
LOX IMVI melanoma = test system: LOX IMVI melanoma
HCT-15 colon = test system: HCT-15 colon
UO-31 renal = test system: UO-31 renal
MCF7 breast = test system: MCF7 breast
786-0 renal = test system: 786-0 renal
CAKI-1 renal = test system: CAKI-1 renal
SN12C renal = test system: SN12C renal
SF-268 CNS = test system: SF-268 CNS
MDA-MB-231 breast = test system: MDA-MB-231 breast
NCI-H23 lung = test system: NCI-H23 lung
A549 NSCLC = test system: A549 NSCLC
HCC-2998 colon = test system: HCC-2998 colon
SR leukemia = test system: SR leukemia
MALME-3M melanoma = test system: MALME-3M melanoma
K-562 leukemia = test system: K-562 leukemia
HOP-92 NSCLC = test system: HOP-92 NSCLC
MDA-N = test system: MDA-N
PC-3 prostate = test system: PC-3 prostate
HT29 colon = test system: HT29 colon
UACC-257 melanoma = test system: UACC-257 melanoma
SNB-19 CNS = test system: SNB-19 CNS
SW-620 colon = test system: SW-620 colon
OVCAR-3 ovarian = test system: OVCAR-3 ovarian
M14 melanoma = test system: M14 melanoma
SF-539 CNS = test system: SF-539 CNS
SK-OV-3 ovarian = test system: SK-OV-3 ovarian
HL-60(TB) leukemia = test system: HL-60(TB) leukemia
HS 578T breast = test system: HS 578T breast
ACHN renal = test system: ACHN renal
SK-MEL-2 melanoma = test system: SK-MEL-2 melanoma
RPMI-8226 leukemia = test system: RPMI-8226 leukemia
OVCAR-8 ovarian = test system: OVCAR-8 ovarian
NCI-H460 lung = test system: NCI-H460 lung
NCI/ADR-RES ovarian = test system: NCI/ADR-RES ovarian
HCT-116 colon = test system: HCT-116 colon
EKVX NSCLC = test system: EKVX NSCLC
OVCAR-5 ovarian = test system: OVCAR-5 ovarian
TK-10 renal = test system: TK-10 renal
SK-MEL-5 melanoma = test system: SK-MEL-5 melanoma
COLO 205 colon = test system: COLO 205 colon
SK-MEL-28 melanoma = test system: SK-MEL-28 melanoma
MDA-MB-435 = test system: MDA-MB-435
NCI-H226 lung = test system: NCI-H226 lung
A498 renal = test system: A498 renal
T-47D breast = test system: T-47D breast
NCI-H522 lung = test system: NCI-H522 lung
RXF 393 renal = test system: RXF 393 renal
DU-145 prostate = test system: DU-145 prostate
OVCAR-4 ovarian = test system: OVCAR-4 ovarian

SMILES: CCOC(=O)NC(C(=O)OCC)C(F)(F)F (centres undefined)
- TGI (IGROV1 ovarian): > 100 µM
- TGI (CCRF-CEM leukemia): > 100 µM
- TGI (U251 CNS): > 100 µM
- TGI (SNB-75 CNS): > 100 µM
- TGI (HOP-62 NSCLC): > 100 µM
- TGI (KM12 colon): > 100 µM
- TGI (SF-295 CNS): > 100 µM
- TGI (MOLT-4 leukemia): > 100 µM
- TGI (LOX IMVI melanoma): > 100 µM
- TGI (HCT-15 colon): > 100 µM
- TGI (UO-31 renal): > 100 µM
- TGI (MCF7 breast): > 100 µM
- TGI (786-0 renal): > 100 µM
- TGI (CAKI-1 renal): > 100 µM
- TGI (SN12C renal): > 100 µM
- TGI (SF-268 CNS): > 100 µM
- TGI (MDA-MB-231 breast): > 100 µM
- TGI (NCI-H23 lung): > 100 µM
- TGI (A549 NSCLC): > 100 µM
- TGI (HCC-2998 colon): > 100 µM
- TGI (SR leukemia): > 100 µM
- TGI (MALME-3M melanoma): > 100 µM
- TGI (K-562 leukemia): > 100 µM
- TGI (HOP-92 NSCLC): > 100 µM
- TGI (MDA-N): > 100 µM
- TGI (PC-3 prostate): > 100 µM
- TGI (HT29 colon): > 100 µM
- TGI (UACC-257 melanoma): > 100 µM
- TGI (SNB-19 CNS): > 100 µM
- TGI (SW-620 colon): > 100 µM
- TGI (OVCAR-3 ovarian): > 100 µM
- TGI (M14 melanoma): > 100 µM
- TGI (SF-539 CNS): > 100 µM
- TGI (SK-OV-3 ovarian): > 100 µM
- TGI (HL-60(TB) leukemia): 69.9 µM
- TGI (HS 578T breast): > 100 µM
- TGI (ACHN renal): > 100 µM
- TGI (SK-MEL-2 melanoma): > 100 µM
- TGI (RPMI-8226 leukemia): > 100 µM
- TGI (OVCAR-8 ovarian): > 100 µM
- TGI (NCI-H460 lung): > 100 µM
- TGI (NCI/ADR-RES ovarian): > 100 µM
- TGI (HCT-116 colon): > 100 µM
- TGI (EKVX NSCLC): > 100 µM
- TGI (OVCAR-5 ovarian): > 100 µM
- TGI (TK-10 renal): > 100 µM
- TGI (SK-MEL-5 melanoma): > 100 µM
- TGI (COLO 205 colon): > 100 µM
- TGI (SK-MEL-28 melanoma): > 100 µM

SMILES: Cc1cc(OCc2nn(CN3CCN(C)CC3)c(=S)n2/N=C/c2ccc(-c3ccc(Cl)cc3Cl)o2)ccc1Cl
- TGI (IGROV1 ovarian): > 100 µM
- TGI (CCRF-CEM leukemia): > 100 µM
- TGI (U251 CNS): > 100 µM
- TGI (MDA-MB-435): > 100 µM
- TGI (HOP-62 NSCLC): > 100 µM
- TGI (KM12 colon): 47.6 µM
- TGI (NCI-H226 lung): > 100 µM
- TGI (SF-295 CNS): > 100 µM
- TGI (MOLT-4 leukemia): > 100 µM
- TGI (A498 renal): > 100 µM
- TGI (LOX IMVI melanoma): > 100 µM
- TGI (HCT-15 colon): > 100 µM
- TGI (UO-31 renal): > 100 µM
- TGI (MCF7 breast): > 100 µM
- TGI (786-0 renal): > 100 µM
- TGI (CAKI-1 renal): > 100 µM
- TGI (SF-268 CNS): > 100 µM
- TGI (MDA-MB-231 breast): > 100 µM
- TGI (NCI-H23 lung): > 100 µM
- TGI (HCC-2998 colon): 31.4 µM
- TGI (T-47D breast): > 100 µM
- TGI (K-562 leukemia): > 100 µM
- TGI (HOP-92 NSCLC): 95.9 µM
- TGI (MDA-N): > 100 µM
- TGI (PC-3 prostate): > 100 µM
- TGI (HT29 colon): > 100 µM
- TGI (UACC-257 melanoma): > 100 µM
- TGI (NCI-H522 lung): 59 µM
- TGI (SW-620 colon): 51 µM
- TGI (OVCAR-3 ovarian): > 100 µM
- TGI (M14 melanoma): > 100 µM
- TGI (RXF 393 renal): 41.3 µM
- TGI (SF-539 CNS): > 100 µM
- TGI (DU-145 prostate): > 100 µM
- TGI (SK-OV-3 ovarian): > 100 µM
- TGI (HL-60(TB) leukemia): 52.6 µM
- TGI (HS 578T breast): > 100 µM
- TGI (ACHN renal): > 100 µM
- TGI (SK-MEL-2 melanoma): > 100 µM
- TGI (RPMI-8226 leukemia): > 100 µM
- TGI (OVCAR-8 ovarian): > 100 µM
- TGI (NCI-H460 lung): > 100 µM
- TGI (NCI/ADR-RES ovarian): > 100 µM
- TGI (HCT-116 colon): > 100 µM
- TGI (EKVX NSCLC): > 100 µM
- TGI (OVCAR-5 ovarian): > 100 µM
- TGI (TK-10 renal): > 100 µM
- TGI (SK-MEL-5 melanoma): > 100 µM
- TGI (SK-MEL-28 melanoma): > 100 µM
- TGI (OVCAR-4 ovarian): 70.6 µM
